This passage reports IC50 results from patent publication US11203613B2, “Peptidomimetic proteasome inhibitors” (CORNELL UNIVERSITY, priority 2017, dated 2021).

pIC50: −log10 of the molar value.

This experiment concerns the target Human Constitutive (Hu C-20S) β5 Active Subunit (Homo sapiens, UniProt P28074). Description: IC50 determination, human constitutive 20S proteasome β5c (suc-LLVY-AMC hydrolysis). As to conditions: Table 3; IC50 against human constitutive β5 active subunit; read-out: Hu-C20S β5. Type of experiment: biochemical.
Turning to `CC[C@H]1CCCCN1C(=O)C[C@H](Nc1nc(Cc2ccc(F)cc2)no1)C(=O)N[C@@H](C)c1nc2c(F)cccc2[nH]1` [CEN-27, (S)-4-((S)-2-Ethylpiperidin-1-yl)-N—((S)-1-(4-fluoro-1H-benzo[d]imidazol-2-yl)ethyl)-2-((3-(4-fluorobenzyl)-1,2,4-oxadiazol-5-yl)amino)-4-oxobutanamide], the pIC50 was 5.85.

`CC[C@H]1CCCCN1C(=O)C[C@H](NC(=O)CCC(C)C)C(=O)N[C@@H](C)c1nc2ccccc2[nH]1` [CEN-28, N—((S)-1-(((S)-1-(1H-Benzo[d]imidazol-2-yl)ethyl)amino)-4-((S)-2-ethylpiperidin-1-yl)-1,4-dioxobutan-2-yl)-4-methylpentanamide]: the pIC50 was 4.83.

With `CC[C@H]1CCCCN1C(=O)C[C@H](NC(=O)CCC(C)(C)C)C(=O)N[C@@H](C)c1nc2ccccc2[nH]1` [CEN-29, N—((S)-1-(((S)-1-(1H-Benzo[d]imidazol-2-yl)ethyl)amino)-4-((S)-2-ethylpiperidin-1-yl)-1,4-dioxobutan-2-yl)-4,4-dimethylpentanamide], the pIC50 was 5.16. In the case of `Cc1ncc(C(=O)N[C@@H](CC(=O)N2CCCC[C@@H]2C)C(=O)N[C@@H](C)c2nc3c(F)cccc3[nH]2)s1` [CEN-30, N—((S)-1-(((S)-1-(4-Fluoro-1H-benzo[d]Imidazol-2-yl)ethyl)amino)-4-((S)-2-methylpiperidin-1-yl)-1,4-dioxobutan-2-yl)-2-methylthiazole-5-carboxamide] it was 5.35; in that of `CC(C)CCC(=O)N[C@@H](CC(=O)N1CCCC[C@@H]1C)C(=O)NCc1nc2ccccc2[nH]1` [CEN-31, N—((S)-1-(((1H-Benzo[d]imidazol-2-yl)methyl)amino)-4-((S)-2-methylpiperidin-1-yl)-1,4-dioxobutan-2-yl)-4-methylpentanamide], 4.75; in that of `CC(C)CCC(=O)N[C@@H](CC(=O)N1CCCC[C@@H]1C)C(=O)N[C@@H](C)c1nc2ccccc2[nH]1` [CEN-32, N—((S)-1-(((S)-1-(1H-Benzo[d]imidazol-2-yl)ethyl)amino)-4-((S)-2-methylpiperidin-1-yl)-1,4-dioxobutan-2-yl)-4-methylpentanamide], 4.63. In the case of `C[C@H](NC(=O)[C@H](CC(=O)N1CCC[C@@H]1C)NC(=O)CCC(C)(C)C)c1nc2ccccc2[nH]1` [CEN-33, N—((S)-1-(((S)-1-(1H-Benzo[d]imidazol-2-yl)ethyl)amino)-4-((S)-2-methylpyrrolidin-1-yl)-1,4-dioxobutan-2-yl)-4,4-dimethylpentanamide] it was 4.78; in that of `CC(C)CCC(=O)N[C@@H](CC(=O)N1CCCC[C@@H]1C)C(=O)N[C@H](C)c1nc2ccccc2[nH]1` [CEN-34, N—((S)-1-(((R)-1-(1H-Benzo[d]imidazol-2-yl)ethyl)amino)-4-((S)-2-methylpiperidin-1-yl)-1,4-dioxobutan-2-yl)-4-methylpentanamide], 4.81; in that of `Cc1cc(C(=O)N[C@@H](CC(=O)N2CCCC[C@@H]2C)C(=O)NC(C)c2nc3ccccc3[nH]2)no1` (stereo partly drawn) [CEN-35, N-((2S)-1-((1-(1H-Benzo[d]imidazol-2-yl)ethyl)amino)-4-((S)-2-methylpiperidin-1-yl)-1,4-dioxobutan-2-yl)-5-methylisoxazole-3-carboxamide], 4.71. Take `Cc1cc(C(=O)N[C@@H](CC(=O)N2CCCC[C@@H]2C)C(=O)N[C@@H](C)c2nc3ccccc3[nH]2)no1` [CEN-36, N—((S)-1-(((S)-1-(1H-Benzo[d]imidazol-2-yl)ethyl)amino)-4-((S)-2-methylpiperidin-1-yl)-1,4-dioxobutan-2-yl)-5-methylisoxazole-3-carboxamide]: the pIC50 was 4.76. In the case of `C[C@@H](NC(=O)[C@H](CC(=O)N1CCCC[C@@H]1C)NC(=O)CCC(C)(C)C)c1nc2ccccc2[nH]1` [CEN-37, N—((S)-1-(((R)-1-(1H-Benzo[d]imidazol-2-yl)ethyl)amino)-4-((S)-2-methylpiperidin-1-yl)-1,4-dioxobutan-2-yl)-4,4-dimethylpentanamide] it was 4.76; in that of `C[C@H](NC(=O)[C@H](CC(=O)N1CCCC[C@@H]1C)NC(=O)C1CC(C)(C)C1)c1nc2c(F)cccc2[nH]1` [CEN-39, N—((S)-1-(((S)-1-(4-Fluoro-1H-benzo[d]Imidazol-2-yl)ethyl)amino)-4-((S)-2-methylpiperidin-1-yl)-1,4-dioxobutan-2-yl)-3,3-dimethylcyclobutane-1-carboxamide], 5.12; in that of `CC(C)C1CC1C(=O)N[C@@H](CC(=O)N1CCCC[C@@H]1C)C(=O)N[C@@H](C)c1nc2c(F)cccc2[nH]1` (stereo partly drawn) [CEN-40, N—((S)-1-(((S)-1-(4-Fluoro-1H-benzo[d]Imidazol-2-yl)ethyl)amino)-4-((S)-2-methylpiperidin-1-yl)-1,4-dioxobutan-2-yl)-2-isopropylcyclopropane-1-carboxamide], 5.57. In the case of `C[C@H](NC(=O)[C@H](CC(=O)N1CCCC[C@@H]1C)NC(=O)CCC(C)(C)C)c1nc2c(F)cccc2[nH]1` [CEN-41, N—((S)-1-(((S)-1-(4-Fluoro-1H-benzo[d]Imidazol-2-yl)ethyl)amino)-4-((S)-2-methylpiperidin-1-yl)-1,4-dioxobutan-2-yl)-4,4-dimethylpentanamide] it was 5.32; in that of `C[C@H](NC(=O)[C@H](CC(=O)N1CCCC[C@@H]1C)NC(=O)C1CC2(CCC2)C1)c1nc2c(F)cccc2[nH]1` [CEN-42, N—((S)-1-(((S)-1-(4-Fluoro-1H-benzo[d]imidazol-2-yl)ethyl)amino)-4-((S)-2-methylpiperidin-1-yl)-1,4-dioxobutan-2-yl)spiro[3.3]heptane-2-carboxamide], 4.56; in that of `C[C@H](NC(=O)[C@H](CC(=O)N1CCCC[C@@H]1C)NC(=O)C1CC2(COC2)C1)c1nc2cccc(F)c2[nH]1` [CEN-43, N—((S)-1-(((S)-1-(7-Fluoro-1H-benzo[d]imidazol-2-yl)ethyl)amino)-4-((S)-2-methylpiperidin-1-yl)-1,4-dioxobutan-2-yl)-2-oxaspiro[3.3]heptane-6-carboxamide], 4.86. In the case of `C[C@@H](NC(=O)[C@H](CC(=O)N1CCCC[C@@H]1C)NC(=O)CC1CC(C)(C)C1)c1nc2c(F)cccc2[nH]1` [CEN-44, (S)-2-(2-(3,3-Dimethylcyclobutyl)acetamido)-N—((R)-1-(4-fluoro-1H-benzo[d]imidazol-2-yl)ethyl)-4-((S)-2-methylpiperidin-1-yl)-4-oxobutanamide] it was 6.05; in that of `CC[C@H]1CCCCN1C(=O)C[C@H](NC(=O)CCC(C)C)C(=O)N[C@@H](C)c1nc2c(F)cc(F)cc2[nH]1` [CEN-45, N—((S)-1-(((S)-1-(4,6-Difluoro-1H-benzo[d]Imidazol-2-yl)ethyl)amino)-4-((S)-2-ethylpiperidin-1-yl)-1,4-dioxobutan-2-yl)-4-methylpentanamide], 5.39; in that of `CC1CC(C(=O)N[C@@H](CC(=O)N2CCC[C@@H]2c2ccccc2)C(=O)NC(C)c2nc3ccccc3[nH]2)C1` (stereo partly drawn) [CEN-46, N-((2S)-1-((1-(1H-Benzo[d]imidazol-2-yl)ethyl)amino)-1,4-dioxo-4-((R)-2-phenylpyrrolidin-1-yl)butan-2-yl)-3-methylcyclobutane-1-carboxamide], 5.08. `CC(C)CCC(=O)N[C@@H](CC(=O)N1CCC[C@@H]1c1ccccc1)C(=O)NC(C)c1nc2ccccc2[nH]1` (stereo partly drawn) [CEN-47, N-((2S)-1-((1-(1H-Benzo[d]imidazol-2-yl)ethyl)amino)-1,4-dioxo-4-((R)-2-phenylpyrrolidin-1-yl)butan-2-yl)-4-methylpentanamide]: the pIC50 is 4.53. Turning to `CC(C)CCC(=O)N[C@@H](CC(=O)N1CCC[C@@H]1c1ccccc1)C(=O)N[C@@H](C)c1nc2ccccc2[nH]1` [CEN-48, N—((S)-1-(((S)-1-(1H-Benzo[d]imidazol-2-yl)ethyl)amino)-1,4-dioxo-4-((R)-2-phenylpyrrolidin-1-yl)butan-2-yl)-4-methylpentanamide], the pIC50 was 4.30. To `CC(C)CCC(=O)N[C@@H](CC(=O)N1CCC[C@@H]1c1ccccc1)C(=O)N[C@H](C)c1nc2ccccc2[nH]1` [CEN-49, N—((S)-1-(((R)-1-(1H-Benzo[d]imidazol-2-yl)ethyl)amino)-1,4-dioxo-4-((R)-2-phenylpyrrolidin-1-yl)butan-2-yl)-4-methylpentanamide] belongs 4.30.

For `C[C@H](NC(=O)[C@H](CC(=O)N1CCCC[C@@H]1C)NC(=O)OCc1ccccc1)c1nc2c(F)cccc2[nH]1` [CEN-50, Benzyl ((S)-1-(((S)-1-(4-Fluoro-1H-benzo[d]Imidazol-2-yl)ethyl)amino)-4-((S)-2-methylpiperidin-1-yl)-1,4-dioxobutan-2-yl)carbamate], the pIC50 was 4.83. To `C[C@H](NC(=O)[C@H](CC(=O)N1CCCC1C1CC1)NC(=O)C1CC2(COC2)C1)c1nc2cccc(F)c2[nH]1` (stereo partly drawn) [CEN-51, N-((2S)-4-(2-Cyclopropylpyrrolidin-1-yl)-1-(((S)-1-(7-fluoro-1H-benzo[d]imidazol-2-yl)ethyl)amino)-1,4-dioxobutan-2-yl)-2-oxaspiro[3.3]heptane-6-carboxamide] belongs 4.82; to `Cc1cc(C(=O)N[C@@H](CC(=O)N2CCC[C@@H]2c2ccccc2)C(=O)NC(C)c2nc3ccccc3[nH]2)no1` (stereo partly drawn) [CEN-52, N-((2S)-1-((1-(1H-Benzo[d]imidazol-2-yl)ethyl)amino)-1,4-dioxo-4-((R)-2-phenylpyrrolidin-1-yl)butan-2-yl)-5-methylisoxazole-3-carboxamide], 5.12; to `Cc1cc(C(=O)N[C@@H](CC(=O)N2CCC[C@@H]2c2ccccc2)C(=O)N[C@@H](C)c2nc3ccccc3[nH]2)no1` [CEN-53, N—((S)-1-(((S)-1-(1H-Benzo[d]imidazol-2-yl)ethyl)amino)-1,4-dioxo-4-((R)-2-phenylpyrrolidin-1-yl)butan-2-yl)-5-methylisoxazole-3-carboxamide], 5.01. To `C[C@H](NC(=O)[C@H](CC(=O)N1CCC[C@@H]1c1ccccc1)NC(=O)CCC(C)(C)C)c1nc2ccccc2[nH]1` [CEN-54, N—((S)-1-(((S)-1-(1H-Benzo[d]imidazol-2-yl)ethyl)amino)-1,4-dioxo-4-((R)-2-phenylpyrrolidin-1-yl)butan-2-yl)-4,4-dimethylpentanamide] belongs 4.78.
